For this test, the system named is Bovine cardiac myofibrils. The test is described as follows: In vitro model of dose-dependent myofibril ATPase modulation (AC1.4, pyruvate kinase/lactate dehydrogenase-coupled ATPase assay at pCa25). In kind it is biochemical. To be noted: concentration at which ATPase activity was 1.4-fold higher than the bottom of the dose curve, mean of a minimum of two independent tests. How it is done:
In vitro Model of Dose-Dependent Myofibril ATPase Modulation: Dose responses were measured using a calcium-buffered, pyruvate kinase and lactate dehydrogenase-coupled ATPase assay containing the following reagents (concentrations expressed are final assay concentrations): Potassium PIPES (12 mM), MgCl2 (2 mM), ATP (1 mM), DTT (1 mM), BSA (0.1 mg/mi), NADH (0.5 mM), PEP (1.5 mM), pyruvate kinase (4 U/ml), lactate dehydrogenase (8 U/ml), and antifoam (90 ppm). The pH was adjusted to 6.80 at 22° C. by addition of potassium hydroxide.
Bovine cardiac myofibrils were obtained by homogenizing the appropriate tissue in the presence of detergent. Such treatment removes membranes and majority of soluble cytoplasmic proteins but leaves intact cardiac sarcomeric acto-myosin apparatus. Concentrations of myofibrils were adjusted to achieve the necessary rate of ATP hydrolysis (typically 0.25-1.0 mg/ml).
Assays were performed by first preparing a dilution series of test chemical entity, each with an assay mixture containing potassium Pipes, MgCl2, BSA, DTT, pyruvate kinase, lactate dehydrogenase, myofibrils, antifoam, EGTA, CaCl2, and water. The assay was started by adding an equal volume of solution containing potassium Pipes, MgCl2, BSA, DTT, ATP, NADH, PEP, antifoam, and water. ATP hydrolysis was monitored by absorbance at 340 nm. The resulting dose response curve was fit by the 4 parameter equation y=Bottom+((Top−Bottom)/(1+((EC50/X)^Hill))). […] AC1.4 values reported in the table below are mean values based on a minimum of two independent tests.
As to `N#CC1CN(S(=O)(=O)N2CCO[C@H](C(=O)N3CCC[C@@H]3C(=O)NCc3cc(F)cc(F)c3)C2)C1` [Example 517, 1-(((2S)-4-((3-cyano-1-azetidinyl)sulfonyl)-2-morpholinyl)carbonyl)-N-(3,5-difluorobenzyl)-D-prolinamide], the AC1.4 amounted to 2.4485 µM.
`C[C@H](C(=O)N[C@H](C)c1ccc(Cl)cc1F)N(C)C(=O)[C@H]1CCCN(S(=O)(=O)N2CC(C#N)C2)C1` [Example 317, (3S)-N-((2R)-1-(((1R)-1-(4-chloro-2-fluorophenyl)ethyl)amino)-l-oxo-2-propanyl)-1-((3-cyano-1-azetidinyl)sulfonyl)-N-methyl-3-piperidinecarboxamide] had an AC1.4 of 0.8619 µM.
`N#CC1CN(S(=O)(=O)c2cccc(C(=O)N3CCC[C@@H]3C(=O)NCc3ccccc3Cl)c2)C1` [Example 396, N-(2-chlorobenzyl)-1-((3-((3-cyano-1-azetidinyl)sulfonyl)phenyl)carbonyl)-D-prolinamide] came in with an AC1.4 of 1.3975 µM.
In the case of `O=C(N[C@@H](c1cc(F)c(Cl)cc1F)C1CC1)[C@H]1C[C@H]2C[C@H]2N1C(=O)c1cccc(C(F)(F)F)n1` [Example 667, (1R,3R,5R)-N-((R)-(4-chloro-2,5-difluorophenyl)(cyclopropyl)methyl)-2-((6-(trifluoromethyl)-2-pyridinyl)carbonyl)-2-azabicyclo[3.1.0]hexane-3-carboxamide] it was 4.708 µM; in that of `CS(=O)(=O)c1cccc(C(=O)N2C[C@@H](F)C[C@@H]2C(=O)N[C@@H](c2ccc(C(F)(F)F)cc2F)C2(F)COC2)c1` [Example 706, (4S)-4-fluoro-N-((S)-(3-fluoro-3-oxetanyl)(2-fluoro-4-(trifluoromethyl)phenyl)methyl)-1-(3-(methylsulfonyl)benzoyl)-D-prolinamide], 5.7465 µM; in that of `N#CC1CN(S(=O)(=O)c2cccc(C(=O)N3CCC[C@@H]3C(=O)NCc3cc(F)cc(F)c3)c2)C1` [Example 55, 1-(3-((3-cyano-1-azetidinyl)sulfonyl)benzoyl)-N-(3,5-difluorobenzyl)-D-prolinamide], 0.0606 µM.
The compound `C[C@@H](NC(=O)[C@H]1CCCN1C(=O)[C@@H]1CN(S(=O)(=O)N2CC(C#N)C2)CCN1)c1ccc(Cl)cc1F` [Example 254, N-((1R)-1-(4-chloro-2-fluorophenyl)ethyl)-1-(((2S)-4-((3-cyano-1-azetidinyl)sulfonyl)-2-piperazinyl)carbonyl)-D-prolinamide] displayed an AC1.4 of 0.6139 µM.
On to `N#CC1CN(S(=O)(=O)N2CCC[C@H](C(=O)N3CCC[C@@H]3C(=O)NCc3ccccc3Cl)C2)C1` [Example 574, N-(2-chlorobenzyl)-1-(((3S)-1-((3-cyano-1-azetidinyl)sulfonyl)-3-piperidinyl)carbonyl)-D-prolinamide], for which the AC1.4 stood at 3.2325 µM.
Regarding `N#CC1CN(S(=O)(=O)N2CCC[C@H](C(=O)N3CCOC[C@@H]3C(=O)NCc3ccc(C(F)(F)F)cc3)C2)C1` [Example 109, (3R)-4-(((3S)-1-((3-cyano-1-azetidinyl)sulfonyl)-3-piperidinyl)carbonyl)-N-(4-(trifluoromethyl)benzyl)-3-morpholinecarboxamide], the AC1.4 was 0.1712 µM.
For `CC[C@H](NC(=O)[C@H]1CCCN1C(=O)c1cccc(S(=O)(=O)N2CC(C#N)C2)c1)c1cc(F)cc(F)c1` [Example 165, 1-(3-((3-cyano-1-azetidinyl)sulfonyl)benzoyl)-N-((1S)-1-(3,5-difluorophenyl)propyl)-D-prolinamide] the value was 0.2792 µM.
For `CC(C)(C(N)=O)c1cccc(C(=O)N2[C@@H](C(=O)N[C@@H](c3ccc(C(F)(F)F)cc3F)C3COC3)C[C@H]3C[C@H]32)c1` [Example 497, (1R,3R,5R)-2-(3-(1-amino-2-methyl-1-oxopropan-2-yl)benzoyl)-N—((R)-(2-fluoro-4-(trifluoromethyl)phenyl)(oxetan-3-yl)methyl)-2-azabicyclo[3.1.0]hexane-3-carboxamide] the value was 2.3075 µM; for `CS(=O)(=O)c1ccc(C(=O)N2[C@@H](C(=O)N[C@@H](c3ccc(C(F)(F)F)cc3F)C3CC3)C[C@H]3C[C@H]32)cn1` [Example 490, (1R,3R,5R)-N-((R)-cyclopropyl(2-fluoro-4-(trifluoromethyl)phenyl)methyl)-2-((6-(methylsulfonyl)-3-pyridinyl)carbonyl)-2-azabicyclo[3.1.0]hexane-3-carboxamide], 2.1625 µM.
Consider `Cc1cncc(C(=O)N2[C@@H](C(=O)N[C@@H](c3cc(F)c(C(F)(F)F)cc3F)C3CC3)C[C@H]3C[C@H]32)c1` [Example 797, (1R,3R,5R)-N-((R)-cyclopropyl(2,5-difluoro-4-(trifluoromethyl)phenyl)methyl)-2-((5-methyl-3-pyridinyl)carbonyl)-2-azabicyclo[3.1.0]hexane-3-carboxamide], for which the AC1.4 worked out at 9.447 µM.
The compound `O=C(O[C@@H]1C[C@H](C(=O)N[C@@H](c2cc(F)c(Cl)cc2F)C2COC2)N(C(=O)c2ccnc(C(F)(F)F)c2)C1)c1ccnc(C(F)(F)F)c1` [Example 493, (3R,5R)-5-(((R)-(4-chloro-2,5-difluorophenyl)(3-oxetanyl)methyl)carbamoyl)-1-((2-(trifluoromethyl)-4-pyridinyl)carbonyl)-3-pyrrolidinyl2-(trifluoromethyl)-4-pyridinecarboxylate] returned an AC1.4 of 2.271 µM.
For the compound `Cc1ccc([C@H](NC(=O)[C@H]2C[C@H]3C[C@H]3N2C(=O)c2cccc(S(C)(=O)=O)c2)C2CC2)cc1F` [Example 810, (1R,3R,5R)-N-((R)-cyclopropyl(3-fluoro-4-methylphenyl)methyl)-2-(3-(methylsulfonyl)benzoyl)-2-azabicyclo[3.1.0]hexane-3-carboxamide], the AC1.4 was determined as 5.084 µM.
In the case of `CS(=O)(=O)c1cccc(C(=O)N2C[C@H]3C[C@H]3[C@@H]2C(=O)N[C@@H](c2ccc(C(F)(F)F)cc2F)C2CC2)c1` [Example 407, (1R,2R,5S)-N-((R)-cyclopropyl(2-fluoro-4-(trifluoromethyl)phenyl)methyl)-3-(3-(methylsulfonyl)benzoyl)-3-azabicyclo[3.1.0]hexane-2-carboxamide] it was 1.427 µM; in that of `O=C(NCc1ccc(C(F)(F)F)cc1)[C@H]1CCCN1C(=O)[C@H]1CCCN(S(=O)(=O)N2CC[C@H](C(F)(F)F)C2)C1` [Example 384, N-(4-(trifluoromethyl)benzyl)-1-(((3S)-1-(((3S)-3-(trifluoromethyl)-1-pyrrolidinyl)sulfonyl)-3-piperidinyl)carbonyl)-D-prolinamide], 1.295 µM; in that of `Cc1cc(C(F)(F)F)ccc1CNC(=O)[C@H]1CCCN1C(=O)[C@H]1CCCN(S(=O)(=O)N2CC(C#N)C2)C1` [Example 60, 1-(((3S)-1-((3-cyano-1-azetidinyl)sulfonyl)-3-piperidinyl)carbonyl)-N-(2-methyl-4-(trifluoromethyl)benzyl)-D-prolinamide], 0.0657 µM.
Turning to `N#CC1CN(S(=O)(=O)c2cccc(C(=O)N3CCC[C@@H]3C(=O)N[C@@H](c3ccc(S(F)(F)(F)(F)F)cc3)C3CC3)c2)C1` [Example 52, 1-(3-((3-cyano-1-azetidinyl)sulfonyl)benzoyl)-N-((R)-cyclopropyl(4-(pentafluoro-lambda~6~-sulfanyl)phenyl)methyl)-D-prolinamide], the AC1.4 is 0.05535 µM.
Compound `CS(=O)(=O)c1cccc(C(=O)N2[C@@H](C(=O)N[C@@H](c3cc(F)c(Cl)cc3F)C3(O)CC3)C[C@H]3C[C@H]32)c1` [Example 316, (1R,3R,5R)-N-((S)-(4-chloro-2,5-difluorophenyl)(1-hydroxycyclopropyl)methyl)-2-(3-(methylsulfonyl)benzoyl)-2-azabicyclo[3.1.0]hexane-3-carboxamide] came in with an AC1.4 of 0.8325 µM.
`CC[C@@H](NC(=O)[C@H]1CCCN1C(=O)[C@H]1CCCN(S(=O)(=O)N2CC(C#N)C2)C1)c1ccc(C(F)(F)F)cc1` [Example 17, 1-(((3S)-1-((3-cyano-1-azetidinyl)sulfonyl)-3-piperidinyl)carbonyl)-N-((1R)-1-(4-(trifluoromethyl)phenyl)propyl)-D-prolinamide] returned an AC1.4 of 0.02445 µM.
For `N#CC1CC(S(=O)(=O)c2cccc(C(=O)N3CCC[C@@H]3C(=O)NCc3ccc(C(F)(F)F)nc3)c2)C1` (stereo partly drawn) [Example 507, (R)-1-(3-((3-cyanocyclobutyl)sulfonyl)benzoyl)-N-((6-(trifluoromethyl)pyridin-3-yl)methyl)pyrrolidine-2-carboxamide] the value was 2.38 µM; for `N#CC1CN(S(=O)(=O)N2CC3CC2[C@@H](C(=O)N2CCC[C@@H]2C(=O)NCc2ccc(C(F)(F)F)cc2F)C3)C1` (stereo partly drawn) [Example 189, 1-((2-((3-cyano-1-azetidinyl)sulfonyl)-2-azabicyclo[2.2.1]hept-6-yl)carbonyl)-N-(2-fluoro-4-(trifluoromethyl)benzyl)-D-prolinamide], 0.3524 µM.
`N#CC1CN(S(=O)(=O)c2cccc(C(=O)N3CCC[C@@H]3C(=O)N[C@H](c3ccc(C(F)(F)F)cc3)C3CC3)c2)C1` [Example 37, 1-(3-((3-cyano-1-azetidinyl)sulfonyl)benzoyl)-N-((S)-cyclopropyl(4-(trifluoromethyl)phenyl)methyl)-D-prolinamide] returned an AC1.4 of 0.0383 µM.
